Assay [1] has as its system secretion of gastric fluids. Description: anti-secretory activity in pylorus-ligated rats (method of Shay et al.). Type of assay: in vivo, male albino Wistar rats. The protocol:
In standard biological test procedures, described generally by Shay et al., Gastroenterology 5, 43 (1945) and 26, 906 (1954) and by Selmici et al., Acta Physiol. Acad. Sci. Hung. […] Anti-secretory activity was determined in male albino Wistar rats weighing approximately 180 g. using the method described by Shay et al. which is described as follows: the rats were divided into medicated groups of at least five rats each and control groups of ten rats. The rats were medicated orally once daily for 2 days prior to stomach ligation and once again immediately following ligation. All drugs were administered as the free base, and control rats received only the vehicle of medication. The rats were housed individually in wire cages, food was withdrawn 48 hours prior to surgery, and water was withdrawn at the time of surgery. Laparotomy was performed under light ether anesthesia, the pyloric-duodenal junction was ligated, and the wound was closed with metal clips and sprayed with a protective surgical dressing. Five hours following surgery, the rats were sacrificed, the stomach was removed, and the gastric juice collected. The gastric fluid was centrifuged, the total volume, color, and volume of solids were recorded. The pH of the gastric fluid was then determined on a Beckman pH meter, and the "free" and "total" hydrochloric acid content of each gastric sample was determined by titrating an aliquot of the gastric fluid (diluted to approximately 10 ml. with distilled water) by titrating with 0.1N sodium hydroxide against Toepfers reagent and phenolphthalein, respectively. By determining the milliequivalents of hydrochloric acid per milliliter of gastric juice and knowing the total volume of gastric juice secreted by each rat, the total acid output can be calculated. Since pH is a function of "free" acid, the activity of the test compounds can be evaluated by comparison of the mean "free" acid of medicated rats with the mean "free" acid of the controls, and the activity can thus be expressed in terms of percent inhibition of free acid.
(§1) Data obtained on administration of the compounds of formula I in rats in the anti-secretory and anti-ulcer tests described above are given in the table below. Unless noted otherwise, data were obtained on oral administration. Results in the anti-secretory activity tests are given in terms of the pH of the gastric fluid in the test animals and the percent inhibition of free acid, while results in the anti-ulcer test are given either in terms of the percent inhibition of ulcers or as a ratio representing the number of animals with ulcers (as the numerator) to the total number of animals in the test group (as the denominator). All doses are expressed in mg./kg.

Assay [2] relates to reserpine-induced stomach ulceration. As to the kind of experiment: anti-ulcer activity, reserpine-induced ulcer test (method of Selmici et al.). Format: in vivo, male, albino, Sprague-Dawley rats. The protocol: The anti-ulcer activity of the compounds was determined using the reserpine-induced anti-ulcer test method, described by Selmici et al., which is described briefly as follows: male, albino, Sprague-Dawley rats, weighing approximately 300 g., were divided into medicated and control groups of at least five rats each, and one positive control group of five rats medicated with a known drug at the active dose was run with each experiment. The rats were medicated forty-eight, twenty-four, and one hour before receiving an injection of reserpine. All test drugs were administered orally in terms of base, and the control rats received only the vehicle of medication. The rats were housed individually in wire cages, and food was withdrawn 24 hours prior to injection of reserpine, while water was allowed ad libitum. One hour following the third medication, 5.0 mg. of reserpine per kilogram of body weight in a concentration of 5 mg./ml. was injected intramuscularly in each rat. Eighteen hours after injection the rats were sacrificed, their stomachs removed, opened along the greater curvature, rinsed in warm saline, and pinned to a cork board for gross observation. The stomachs were examined for the number and size of ulcerations located in the glandular portion of the stomach with the aid of a one millimeter grid ocular with a 10x dissecting microscope. The degree of ulceration was arbitrarily graded according to the number and size of the ulcers as follows:
The points were added together and divided by the number of rats in each group to give an ulcer score, and the difference in the mean scores of the medicated and control group was expressed as percent inhibition of ulceration. Alternatively, the results can be expressed as a ratio of the total number of rats with any degree of ulceration (as the numerator) to the total number of rats in the test group (as the denominator).
as §1

Assay [3] shares this test system. The assay is described as above. Type of assay: in vivo, male, albino, Sprague-Dawley rats. To be noted: for inhibition in vivo at 50 mg/kg: Rattus norvegicus, sc, 18 h; for Anti-Ulcer: ratio of number of animals with ulcers to total number of animals in the test group: s.c., 50 mg./kg.
Where [4] appears, read: Rattus norvegicus, po, 5 h, oral, 100 mg./kg., read-out: % Inhibition of Free Acid.
[5] abbreviates: Rattus norvegicus, 18 h, oral, 100 mg./kg.
Setting [6] is: Rattus norvegicus, intraduodenal, 5 h, i.d., 100 mg./kg., read-out: % Inhibition of Free Acid.
The mark [7] stands for this setting: Rattus norvegicus, ip, 5 h, i.p., 100 mg./kg., read-out: % Inhibition of Free Acid.
Where [8] appears, read: Rattus norvegicus, sc, 5 h, s.c., 100 mg./kg., read-out: % Inhibition of Free Acid.

Like-named read-outs stand apart in the source and are kept apart here.

As for `CNC(=O)Cn1c(C)c(C)c2ccccc21` [Example 1B, 2,3-Dimethyl-1-indole-N-methylacetamide], the inhibition in vivo at 6.25 mg/kg in assay [1] (Rattus norvegicus, intraduodenal, 5 h, i.d., 6.25 mg./kg., read-out: % Inhibition of Free Acid) turned out to be 46%. In addition, the inhibition in vivo at 100 mg/kg worked out at 45% in assay [1] (setting [4]) and 91% in assay [2] (setting [5]). In addition, the “pH of the gastric fluid” value turned out to be 1.4 in assay [1] (i.d., 6.25 mg./kg.) and 1.8 in assay [1] (oral, 100 mg./kg.). The compound also showed an inhibition in vivo at 50 mg/kg in assay [3] of 93%.
As for `Cc1c(C)n(CC(=O)NCCO)c2ccccc12` [Example 3A, 2,3-dimethyl-1-indole-N-(2-hydroxyethyl)acetamide], the values for the inhibition in vivo at 100 mg/kg in assay [1] (setting [4]) and in assay [2] (setting [5]) were 22% and 84%, respectively. Further, in assay [1] (oral, 100 mg./kg.), the “pH of the gastric fluid” value was 1.4. The inhibition in vivo at 50 mg/kg in assay [3] came to 69%.
With `Cc1c(C)n(CCC(N)=O)c2ccccc12` [Example 4A, β-(2,3-dimethyl-1-indole)propionamide], the inhibition in vivo at 100 mg/kg in assay [1] (setting [4]) was 100%. For the same compound, the “pH of the gastric fluid” value in assay [1] (oral, 100 mg./kg.) came to 5.3. The compound further showed an inhibition in vivo at 1.56 mg/kg in assay [2] (Rattus norvegicus, 18 h, oral, 1.56 mg./kg.) of 43%. This compound also returned an inhibition in vivo at 6.25 mg/kg in assay [2] (Rattus norvegicus, 18 h, oral, 6.25 mg./kg.) of 48%. In assay [2] (Rattus norvegicus, 18 h, oral, 25 mg./kg.), this compound gave an inhibition in vivo at 25 mg/kg of 93%. This compound also displayed an inhibition in vivo at 50 mg/kg in assay [3] of 89%.
With `Cc1c(CO)c2ccccc2n1CC(N)=O` [Example 8C, 2-Methyl-3-hydroxymethyl-1-indoleacetamide], the inhibition in vivo at 100 mg/kg is 30% in assay [1] (setting [6]), 61% in assay [1] (setting [7]), 62% in assay [1] (setting [4]) and 100% in assay [1] (setting [8]). In addition, the “pH of the gastric fluid” value was found to be 1.1 in assay [1] (i.d., 100 mg./kg.); 2.0 in assay [1] (i.p., 100 mg./kg.); 1.5 in assay [1] (oral, 100 mg./kg.); 6.9 in assay [1] (s.c., 100 mg./kg.). Further, the “Anti-Ulcer: ratio of number of animals with ulcers to total number of animals in the test group” value (“Anti-Ulcer: ratio of number of animals” below) in assay [3] is reported as 0/5.
Regarding `Cc1c(CO)c2cc(F)ccc2n1CCC(N)=O` [Example 8E, β-(2-Methyl-3-hydroxymethyl-5-fluoro-1-indole)propionamide], the inhibition in vivo at 100 mg/kg came out at 89% in assay [1] (setting [6]), 100% in assay [1] (setting [7]), 22% in assay [1] (setting [4]) and 100% in assay [1] (setting [8]). Moreover, the “pH of the gastric fluid” value is 3.5 in assay [1] (i.d., 100 mg./kg.); 5.9 in assay [1] (i.p., 100 mg./kg.); 1.1 in assay [1] (oral, 100 mg./kg.); 6.1 in assay [1] (s.c., 100 mg./kg.). Further, in assay [3], the “Anti-Ulcer: ratio of number of animals” value is given as 1/3.
As to `Cc1c(C(O)C(F)(F)F)c2ccccc2n1CCC(N)=O` (stereo not drawn) [Example 8F, β-[2-Methyl-3-(2-trifluoro-1-hydroxyethyl)-1-indole]-propionamide], the inhibition in vivo at 100 mg/kg in assay [1] (setting [6]) was 69%; in assay [1] (setting [7]), 24%; in assay [1] (setting [4]), 2%; in assay [1] (setting [8]) it was 7%. Also, the “pH of the gastric fluid” value in assay [1] (i.d., 100 mg./kg.) is recorded as 1.5; in assay [1] (i.p., 100 mg./kg.), 1.2; in assay [1] (oral, 100 mg./kg.), 1.0; in assay [1] (s.c., 100 mg./kg.), 1.0. In assay [2] (Rattus norvegicus, 18 h, oral, 50 mg./kg.), this compound displayed an inhibition in vivo at 50 mg/kg of 45%.
Turning to `Cc1c(CO)n(CCC(N)=O)c2ccccc12` [Example 8G, β-(2-hydroxymethyl-3-methyl-1-indole)propionamide], the inhibition in vivo at 100 mg/kg in assay [1] (setting [6]) worked out at 33%; in assay [1] (setting [7]) it was 34%; in assay [1] (setting [4]) it was 22%. In addition, the “pH of the gastric fluid” value in assay [1] (i.d., 100 mg./kg.) is listed as 1.4; in assay [1] (i.p., 100 mg./kg.), 1.7; in assay [1] (oral, 100 mg./kg.), 1.3. Further, the “Anti-Ulcer: ratio of number of animals” value in assay [2] (oral, 100 mg./kg.) was 3/5.
For the compound `Cc1cn(CC(N)=O)c2ccccc12` [Reference, 3-methyl-1-indole-acetamide, reference compound], the inhibition in vivo at 100 mg/kg in assay [1] (setting [4]) turned out to be 62%; in assay [2] (setting [5]), 75%. In addition, the “pH of the gastric fluid” value in assay [1] (oral, 100 mg./kg.) stood at 2.3. For the same compound, the “anti-secretory activity (in words)” value in assay [1] (rat, in vivo) was “has anti-secretory and anti-ulcer activities”. Also, the “anti-ulcer activity (in words)” value in assay [2] (rat, in vivo) was “has anti-secretory and anti-ulcer activities”.

The values above are taken from patent US4069337A, “2-Substituted-indole-1-lower-alkanecarboxamides having anti-secretory or anti-ulcer activity” (Sterling Drug Inc., priority 1976, dated 1978).
